Measured values reported in ChEMBL document CHEMBL1201862, “PubChem BioAssay data set” (2004).
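Protocol summary: plate cells (96-well), add compound at 5 concentrations, incubate 48 h, interpolate endpoints linearly. GI50: concentration for 50% inhibition of growth.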 Activity calls are given as the source filed them. No stated cut-off is given here; in the data, active = GI50 up to about 1.1 µM and inactive = higher.

Legend:
Test in all cases: growth of human tumour cells (NCI), 48 h
SR = system: SR
HCT-116 = system: HCT-116
UACC-257 = system: UACC-257
RXF 393 = system: RXF 393
NCI-H226 = system: NCI-H226
UO-31 = system: UO-31
ACHN = system: ACHN
SF-295 = system: SF-295
CAKI-1 = system: CAKI-1
TK-10 = system: TK-10
SF-268 = system: SF-268
786-0 = system: 786-0
IGROV-1 = system: IGROV-1
MDA-N = system: MDA-N
NCI-H460 = system: NCI-H460
MDA-MB-435 = system: MDA-MB-435
PC-3 = system: PC-3
OVCAR-8 = system: OVCAR-8
OVCAR-4 = system: OVCAR-4
COLO 205 = system: COLO 205

Measured: GI50

Cc1cccc(/N=N/c2ccc(O)c(CN(C)C)c2)c1
inactive: SR 43.1 µM | HCT-116 20.5 µM | UACC-257 17.5 µM | RXF 393 29 µM | NCI-H226 30.9 µM | UO-31 7.35 µM | ACHN 8 µM | SF-295 28.4 µM | CAKI-1 20.7 µM | TK-10 22.9 µM | SF-268 26.2 µM | 786-0 18.9 µM | IGROV-1 21.8 µM | MDA-N 27.3 µM | NCI-H460 16.7 µM | MDA-MB-435 15.2 µM | PC-3 36.4 µM | OVCAR-8 21.3 µM | OVCAR-4 55.3 µM | COLO 205 13.2 µM

CCCCCCCCCCCCCCCCCCNc1ccn(C2OC(COP(=O)(O)OCC3OC(n4cc(C)c(=O)[nH]c4=O)CC3F)C(O)C2O)c(=O)n1 (stereo not given)
inactive: SR 1.44 µM | HCT-116 10.2 µM | UACC-257 10.4 µM | RXF 393 1.67 µM | NCI-H226 37.8 µM | UO-31 13.2 µM | ACHN 13 µM | SF-295 9.89 µM | CAKI-1 8.73 µM | TK-10 3.08 µM | SF-268 8.59 µM | 786-0 4.06 µM | IGROV-1 5.78 µM | MDA-N 8.15 µM | NCI-H460 7.41 µM | MDA-MB-435 7.91 µM | PC-3 1.61 µM | OVCAR-8 8.51 µM | OVCAR-4 9.02 µM | COLO 205 3.34 µM

O=C(O)CN1CCNCCN(CC(=O)O)CC1
inactive: SR 3.84 µM | HCT-116 3.36 µM | UACC-257 15.2 µM | RXF 393 13.6 µM | NCI-H226 9.93 µM | UO-31 10.2 µM | ACHN > 84.5 µM | SF-295 > 69 µM | CAKI-1 > 100 µM | TK-10 8.2 µM | SF-268 89.1 µM | 786-0 5.48 µM | IGROV-1 12.6 µM | MDA-N 11.4 µM | NCI-H460 7.66 µM | MDA-MB-435 11.6 µM | PC-3 18.1 µM | OVCAR-8 2.63 µM | OVCAR-4 38.8 µM | COLO 205 2.01 µM

C1CCC(CC2CCC(NC3=NCCO3)CC2)CC1 (stereo not given)
inactive: SR 24.4 µM | HCT-116 15.5 µM | UACC-257 16.4 µM | RXF 393 18.3 µM | NCI-H226 18.8 µM | UO-31 19.9 µM | ACHN 19.5 µM | SF-295 19.7 µM | CAKI-1 24.5 µM | TK-10 15.3 µM | SF-268 26 µM | 786-0 15.2 µM | IGROV-1 19.7 µM | MDA-N 20.3 µM | NCI-H460 20.2 µM | MDA-MB-435 17.4 µM | PC-3 15.8 µM | OVCAR-8 17.1 µM | OVCAR-4 20.2 µM | COLO 205 14.2 µM

CC(C)(C)c1cc(C(C)(C)C)c2c(c1O)OC(=O)CS2
inactive: SR 4.56 µM | HCT-116 3.6 µM | UACC-257 13.9 µM | RXF 393 3.61 µM | NCI-H226 8.34 µM | UO-31 5.73 µM | ACHN 3.96 µM | SF-295 4.26 µM | CAKI-1 5.9 µM | TK-10 3.88 µM | SF-268 5.51 µM | 786-0 6.07 µM | IGROV-1 7.1 µM | MDA-N 3.67 µM | NCI-H460 2.75 µM | MDA-MB-435 3.85 µM | PC-3 7.24 µM | OVCAR-8 5.98 µM | OVCAR-4 5.28 µM | COLO 205 2.99 µM

c1ccc(-c2ccc(/N=N/N3CCCC3)cc2)cc1
inactive: SR 7.11 µM | HCT-116 > 100 µM | UACC-257 > 100 µM | RXF 393 > 100 µM | NCI-H226 > 100 µM | UO-31 > 100 µM | ACHN > 100 µM | SF-295 > 100 µM | CAKI-1 > 100 µM | TK-10 > 100 µM | SF-268 > 100 µM | 786-0 > 100 µM | IGROV-1 > 100 µM | MDA-N > 100 µM | NCI-H460 > 100 µM | MDA-MB-435 > 100 µM | PC-3 > 100 µM | OVCAR-8 > 100 µM | OVCAR-4 > 100 µM | COLO 205 > 100 µM

CNN1C(=O)c2c(N)c(C#N)c(-c3ccccc3)c(-c3ccccc3)c2C1=O
inactive: SR 76.7 µM | HCT-116 44.1 µM | UACC-257 > 100 µM | RXF 393 82.8 µM | NCI-H226 > 100 µM | UO-31 48.6 µM | ACHN > 100 µM | SF-295 73.5 µM | CAKI-1 > 100 µM | TK-10 > 100 µM | SF-268 > 100 µM | 786-0 91.6 µM | IGROV-1 48.9 µM | MDA-N > 100 µM | NCI-H460 71.6 µM | MDA-MB-435 > 100 µM | PC-3 55.6 µM | OVCAR-8 90.6 µM | OVCAR-4 > 100 µM | COLO 205 > 100 µM

NNC(=O)CC(=O)Nc1ccc(C(=O)O)cc1
inactive: SR > 100 µM | HCT-116 > 100 µM | UACC-257 > 100 µM | RXF 393 > 100 µM | NCI-H226 > 100 µM | UO-31 > 100 µM | ACHN > 100 µM | SF-295 > 100 µM | CAKI-1 > 100 µM | TK-10 > 100 µM | SF-268 > 100 µM | 786-0 > 100 µM | IGROV-1 > 100 µM | MDA-N > 100 µM | NCI-H460 > 100 µM | MDA-MB-435 > 100 µM | PC-3 > 100 µM | OVCAR-8 > 100 µM | OVCAR-4 > 100 µM | COLO 205 > 100 µM

[N-]=[N+]=Nc1c(N2CCOCC2)c(Cl)nc2ccccc12
inactive: SR 92.3 µM | HCT-116 39.5 µM | UACC-257 27.9 µM | RXF 393 64.6 µM | NCI-H226 30.3 µM | UO-31 33.6 µM | ACHN 39.2 µM | SF-295 60.5 µM | CAKI-1 60.5 µM | TK-10 61.2 µM | SF-268 37.5 µM | 786-0 86.7 µM | IGROV-1 81.8 µM | MDA-N 48.8 µM | NCI-H460 28.8 µM | MDA-MB-435 42.5 µM | PC-3 34.2 µM | OVCAR-8 35.2 µM | OVCAR-4 33.7 µM | COLO 205 33.5 µM
